Source: ChEMBL document CHEMBL1201862, “PubChem BioAssay data set” (2004)
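48-hour exposure; five concentrations; linearly interpolated endpoints. GI50: concentration for 50% inhibition of growth.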 Calls of active or inactive are those of the source. Cut-off read from the data, not from the text of the source: active = GI50 up to about 1.1 µM and inactive = higher.

Assays:
Assay in all cases: DTP human tumour cell line panel, 48 h
[1] = test system: SK-MEL-28
[2] = test system: HL-60
[3] = test system: HOP-92
[4] = test system: A498
[5] = test system: HT-29
[6] = test system: IGROV-1
[7] = test system: SR
[8] = test system: UO-31
[9] = test system: SK-MEL-5
[10] = test system: SK-MEL-2
[11] = test system: OVCAR-4
[12] = test system: ACHN
[13] = test system: NCI-H23
[14] = test system: DU-145
[15] = test system: SF-539
[16] = test system: TK-10
[17] = test system: RPMI-8226
[18] = test system: HCC 2998
[19] = test system: KM12
[20] = test system: SN12C

SMILES: CC(=O)OC1COC(n2c(-c3ccc(Cl)cc3)cc(-c3ccccc3)c(C#N)c2=S)C(OC(C)=O)C1OC(C)=O (stereo not given)
- GI50 [1]: > 28.9 µM (inactive)
- GI50 [2]: 37.7 µM (inactive)
- GI50 [3]: 12.9 µM (inactive)
- GI50 [4]: 17.4 µM (inactive)
- GI50 [5]: 26.2 µM (inactive)
- GI50 [6]: 18.2 µM (inactive)
- GI50 [7]: 29.2 µM (inactive)
- GI50 [8]: 17.6 µM (inactive)
- GI50 [9]: 8.51 µM (inactive)
- GI50 [10]: 12 µM (inactive)
- GI50 [11]: 2.92 µM (inactive)
- GI50 [12]: 17.5 µM (inactive)
- GI50 [13]: 12.2 µM (inactive)
- GI50 [14]: 13.9 µM (inactive)
- GI50 [15]: 4.42 µM (inactive)
- GI50 [16]: 31.6 µM (inactive)
- GI50 [17]: 29.9 µM (inactive)
- GI50 [18]: 31.6 µM (inactive)
- GI50 [19]: 14.7 µM (inactive)
- GI50 [20]: 9.25 µM (inactive)

SMILES: C=C1CC(O)C2C(=C)C(=O)OC2C2C(C)C(=O)CC12 (stereo not given)
- GI50 [1]: 14.3 µM (inactive)
- GI50 [2]: 3.01 µM (inactive)
- GI50 [3]: 13 µM (inactive)
- GI50 [4]: 29.4 µM (inactive)
- GI50 [5]: 18.7 µM (inactive)
- GI50 [6]: 18.4 µM (inactive)
- GI50 [7]: 9.14 µM (inactive)
- GI50 [8]: 14.7 µM (inactive)
- GI50 [9]: 20.7 µM (inactive)
- GI50 [10]: 18.9 µM (inactive)
- GI50 [11]: 17.6 µM (inactive)
- GI50 [12]: 5.32 µM (inactive)
- GI50 [13]: 16 µM (inactive)
- GI50 [14]: 15.3 µM (inactive)
- GI50 [15]: 19.7 µM (inactive)
- GI50 [16]: 4.82 µM (inactive)
- GI50 [17]: 14 µM (inactive)
- GI50 [18]: 20 µM (inactive)
- GI50 [19]: 24.7 µM (inactive)
- GI50 [20]: 15.5 µM (inactive)

SMILES: CC1OC(OC2C(O[C@H]3CC[C@@]4(C)C(=CC[C@H]5[C@@H]6C[C@@H]7O[C@]8(CC[C@@H](C)CO8)[C@@H](C)[C@@H]7[C@@]6(C)CC[C@@H]54)C3)OC(CO)C(OC3OC(CO)C(O)C3O)C2O)C(O)C(O)C1O (stereo not given in full)
- GI50 [1]: 0.605 µM (active)
- GI50 [2]: 0.964 µM (active)
- GI50 [3]: 1.01 µM (active)
- GI50 [4]: 0.881 µM (active)
- GI50 [5]: 0.805 µM (active)
- GI50 [6]: 0.847 µM (active)
- GI50 [7]: 0.695 µM (active)
- GI50 [8]: 0.798 µM (active)
- GI50 [9]: 0.746 µM (active)
- GI50 [10]: 1.01 µM (active)
- GI50 [11]: 0.931 µM (active)
- GI50 [12]: 0.855 µM (active)
- GI50 [13]: 0.836 µM (active)
- GI50 [14]: 0.984 µM (active)
- GI50 [15]: 0.644 µM (active)
- GI50 [16]: 0.989 µM (active)
- GI50 [17]: 0.724 µM (active)
- GI50 [18]: 0.366 µM (active)
- GI50 [19]: 0.912 µM (active)
- GI50 [20]: 0.571 µM (active)

SMILES: CC(C)Oc1c(N(Cc2ccccc2)c2ccccc2C2SCCCS2)c(=O)c1=O
- GI50 [1]: 11.2 µM (inactive)
- GI50 [2]: 3.98 µM (inactive)
- GI50 [3]: 6.81 µM (inactive)
- GI50 [4]: 6.9 µM (inactive)
- GI50 [5]: 2.52 µM (inactive)
- GI50 [6]: 3.32 µM (inactive)
- GI50 [7]: 2.79 µM (inactive)
- GI50 [8]: 6.67 µM (inactive)
- GI50 [9]: 4.32 µM (inactive)
- GI50 [10]: 3.32 µM (inactive)
- GI50 [11]: 9.04 µM (inactive)
- GI50 [12]: 5.81 µM (inactive)
- GI50 [13]: 3.97 µM (inactive)
- GI50 [14]: 4.18 µM (inactive)
- GI50 [15]: 2.76 µM (inactive)
- GI50 [16]: 8.63 µM (inactive)
- GI50 [17]: 4.24 µM (inactive)
- GI50 [18]: 3.5 µM (inactive)
- GI50 [19]: 3.21 µM (inactive)
- GI50 [20]: 6.17 µM (inactive)
